Results reported in patent publication US20040077031A1, “Novel methionine aminopeptidase-2 and uses thereof” (priority 2002, published 2004).
Entries after “also recorded” stand apart in the source; their conditions may differ. Read-outs that look alike come from different tables or passages of the source.

Assays:
[1] = target: T1, cellular MetAP2 (Homo sapiens, UniProt P50579); assay: Cellular MetAP2 activity (unprocessed initiator methionine of cellular proteins) in HMVEC; format: cell-based; conditions: for inhibition of cellular MetAP2 activity / initiator methionine processing: HMVEC
T1 construct: host or cells: HMVEC
Experimental: Human microvascular endothelial cells (HMVEC) (Clonetics, San Diego, Calif.) were grown in EGM2 recommended medium (Wang et al., J. Cell. Biochem. 77: 465-473, 2000). Cells in T75 flasks at approximately 70% confluence were changed to 15 ml EGLM (labeling medium, Clonetics) without added methionine. Fumagillin (Sigma Catalog No. F-6771) or A310840 (Abbott Laboratories, Abbott Park, Ill.) was added to the culture to final concentrations of 1 nM (fumagillin) or 0.5, 2 and 5 μM (A310840). The cells and inhibitors were incubated for four hours before adding 0.5 mCi/flask of ^35S-methionine (Amersham, Piscataway, N.J.). The cells were allowed further incubation for two hours, washed and lysed in 1 ml M-per (Pierce, Rockford, Ill.) buffer. The lysate samples having the same amount of radioactivity were loaded to a 0.5 ml column of Reactive Blue 72-agarose (Sigma, St. Louis, Mo.) equilibrated with 20 mM Tris/HCl, pH 7.5, 150 mM NaCl. The columns were washed with 30 ml equilibrium buffer, and then incubated with 3 ml of 100 nM MetAP2 in equilibration/washing buffer for 20 minutes at room temperature. The MetAP2 cleaved radioactivity (unprocessed initiator methionine) was then counted.
(§1) The cellular activity of A-357300 was tested in HMVEC grown in complete EGM2 medium enriched with a combination of growth factors (vascular endothelial growth factor (VEGF), basic fibroblast growth factor (bFGF), epidermal growth factor (EGF), and insulin-like growth factor (IGF)) and fetal bovine serum. […] To determine that the cellular effect of A-357300 was through inhibition of cellular MetAp2, HMVEC were incubated with the MetAP2 inhibitors fumagillin and A-357300 for 4 hours before ^35S-methionine was added to the culture. After another 2-hour incubation, cellular proteins were collected and applied to a reactive dye-agarose column as described in Example 6. MetAP2 specific substrates (GAPDH and other cellular proteins with a N-terminal cleavable initiator methionine) were captured on the agarose column.

[2] = target: T2, MetAP2 (Homo sapiens, UniProt P50579); assay: MetAP2 enzyme inhibition, coupled-enzyme chromogenic assay; format: biochemical
T2 construct: gp67 secretion signal of vector pAcGP67B (N); made in house; host or cells: baculovirus-infected Sf9 insect cells, secreted into medium
From the text: (§2) A coupled-enzyme chromogenic assay was used to measure methionine aminopeptidase activity by monitoring the production of free methionine cleaved from specific peptide substrates containing methionine. […] Other peptides can be used including dimeric, tetrameric, pentameric, hexameric, heptameric, nonameric, decameric, and undecameric peptides. […] Free methionine was oxidized with L-amino acid oxidase (AAO, Sigma Catalog No. A-9378) and horseradish peroxidase (HRP, Sigma Catalog No. P-8451). Oxidation by AAO of free methionine generates hydrogen peroxide (H2O2) which then reacts with HRP oxidizing 0-dianisidine (Sigma Catalog No. D-1954) or 10-acetyl-3,7-dihydrophenoxazine (Amplex Red, Molecular Probes). Assays were performed in 96-well microtiter plates. Enzyme preparations were diluted in assay buffer (50 mM HEPES, pH 7.4, 100 mM NaCl), and 10 μl of the enzymes were introduced into each well. A mixture (90 μl) of 0.1 mg/ml L-amino acid oxidase, 0.1 mg/ml of horseradish peroxidase, 0.1 mg/ml ortho-dianisidine, and 0.5 mM peptide substrate was added to each cell. The reactions were carried out at room temperature, and the absorbance at 450 nanometer (A450) was measured every 20 seconds over a period of twenty minutes using an automatic plate reader (Molecular Devices, Calif., USA). The rate in mOD/min, calculated for each well, was used to represent MetAP1 or MetAP2 activity. Under this assay condition, the methionine cleaved from peptide substrate by MetAP1 or MetAP2 was instantaneously oxidized to generate a final A450 readout.
as §1

[3] = tested on: HMVEC cells; assay: Penetration and accumulation into HMVEC cells; format: in vitro ADME, human
[4] = tested on: HMVEC; assay: 3-day HMVEC proliferation assay; format: cell-based, human
Experimental: as §1

[5] = target: T3, MetAP1 (Homo sapiens, UniProt P53582); assay: Metal dependence and baseline activity of MetAP1, chromogenic assay; format: biochemical
T3 construct: histidine tag (N); gp67 secretion signal of vector pAcGP67B (N); made in house; host or cells: baculovirus-infected Sf9 insect cells, secreted into medium
From the text: as §2
Both MetAP1 and MetAP2 need the presence of a metal in the active site for optimal activity, and have previously been classified as Co^2+, metalloproteases (Arfin et al, 1995; Li and Chang, 1996). […] Calcium chloride (Ca^2+), cobalt chloride (Co^2+), cupric chloride (Cu^2+), ferrous chloride (Fe^2+), magnesium chloride (Mg^2+), manganese chloride (Mn^2+), nickel chloride (Ni^2+), or zinc chloride (Zn^2+) was included in each assay at final concentrations of 0, 0.1, 1, 10, 100, 1000, and 10,000 μM in the assay buffer (50 mM HEPES, pH 7.4, 100 mM NaCl).

[6] = target: T2, MetAP2; assay: Metal dependence and baseline activity of MetAP2, chromogenic assay; format: biochemical
From the text: as §2
Both MetAP1 and MetAP2 need the presence of a metal in the active site for optimal activity, and have previously been classified as Co^2+, metalloproteases (Arfin et al, 1995; Li and Chang, 1996). […]

[7] = target: T3, MetAP1; assay: Metal dependence of MetAP1 in the presence of glutathione, radioactive methionine assay; format: biochemical; conditions: 5 mM glutathione
Experimental: Fmoc-L-Lys(biotinyl) —OH was purchased from Bachem (King of Prussia, Pa.). Fmoc-L-[methyl-^3H]Methionine was synthesized by reacting Fmoc-Cl with L-[methyl-^3H]Methionine (Amersham, Piscataway, N.J.) in a 1:1 Dioxane/10% Na2CO3(aq) mixed solvent. The peptides were deprotected and cleaved from the resin using a trifluoroacetic acid solution containing water, thioanisole, and ethanedithiol (900 μl:25 μl:50 μl:25 μl) as scavengers. The peptides were purified by HPLC using a Waters C18 Symmetry column (7.8×300 mm, 7 μm; Milford, Mass.). […] The resulting amount of cleaved radioactive methionine is directly proportional to the catalytic activity of the MetAP. […] (See U.S. Pat. No. 6,156,495 for a discussion of labels and uses thereof). Conversely, anything impairing the catalytic activity of MetAP (e.g., inhibitory agents, wrong metal cofactor) will result in a decreased amount of free radioactive methionine.
To study the effect of metal ions in the presence of physiologically relevant reduced glutathione (GSH) (Walker and Bradshaw, 1998), the assay measuring radioactive methionine release from a peptide described in Example 3.2 was used because GSH affected the coupled enzyme chromogenic assay.

[8] = tested on: HMVEC/HUVEC; assay: Cell proliferation inhibition; format: cell-based; conditions: Homo sapiens, read-out: IC50s of proliferation inhibition
Experimental: as §1

[9] = tested on: MCF7; assay: Cell proliferation inhibition; format: cell-based; conditions: Homo sapiens, Tumor cells, read-out: IC50s of proliferation inhibition
From the text: (§3) Table 2 summarizes the selectivity of MetAP2 inhibitors in inhibiting the proliferation of endothelial cells and certain tumor cells. Proliferation of endothelial cells of various origins, normal human primary cells pf non-EC type, and tumor cell lines were studied with MetAP2 inhibitors A-357300 and fumagillin. […] Most tumor cells were […] while some were resistant.

[10] = tested on: T-lymphocytes; assay: Cell proliferation inhibition; format: cell-based; conditions: T-lymphocyte, Normal human primary cells, read-out: IC50s of proliferation inhibition
From the text: as §3

[11] = tested on: Human CEC; assay: Cell proliferation inhibition; format: cell-based; conditions: EC, read-out: IC50s of proliferation inhibition
From the text: as §3

[12] = tested on: Fibroblasts; assay: Cell proliferation inhibition; format: cell-based; conditions: Fibroblast, Normal human primary cells, read-out: IC50s of proliferation inhibition
From the text: as §3

[13] = tested on: BAEC (bovine); assay: Cell proliferation inhibition; format: cell-based; conditions: Bos taurus, EC, read-out: IC50s of proliferation inhibition
From the text: as §3

[14] = tested on: HCT-15; assay: Cell proliferation inhibition; format: cell-based; conditions: Homo sapiens, Tumor cells, read-out: IC50s of proliferation inhibition
From the text: as §3

[15] = tested on: Mammary Epithelial cells; assay: Cell proliferation inhibition; format: cell-based; conditions: Normal human primary cells, read-out: IC50s of proliferation inhibition
From the text: as §3

[16] = tested on: Astrocytes; assay: Cell proliferation inhibition; format: cell-based; conditions: Astrocyte, Normal human primary cells, read-out: IC50s of proliferation inhibition
From the text: as §3

[17] = tested on: DLD-1; assay: Cell proliferation inhibition; format: cell-based; conditions: Homo sapiens, Tumor cells, read-out: IC50s of proliferation inhibition
From the text: as §3

[18] = tested on: PC3; assay: Cell proliferation inhibition; format: cell-based; conditions: Homo sapiens, PC-3, Tumor cells, read-out: IC50s of proliferation inhibition
From the text: as §3

[19] = tested on: A549; assay: Cell proliferation inhibition; format: cell-based; conditions: Homo sapiens, Tumor cells, read-out: IC50s of proliferation inhibition
From the text: as §3

[20] = tested on: NCI-H460; assay: Cell proliferation inhibition; format: cell-based; conditions: Homo sapiens, Tumor cells, read-out: IC50s of proliferation inhibition
From the text: as §3

[21] = tested on: CHP-134; assay: Cell proliferation inhibition; format: cell-based; conditions: Homo sapiens, Tumor cells, read-out: IC50s of proliferation inhibition
From the text: as §3

[22] = tested on: Prostate Epithelial cells; assay: Cell proliferation inhibition; format: cell-based; conditions: Normal human primary cells, read-out: IC50s of proliferation inhibition
From the text: as §3

[23] = tested on: MDA-435-LM; assay: Cell proliferation inhibition; format: cell-based; conditions: Homo sapiens, Tumor cells, read-out: IC50s of proliferation inhibition
From the text: as §3

[24] = tested on: HT-1080; assay: Cell proliferation inhibition; format: cell-based; conditions: Homo sapiens, Tumor cells, read-out: IC50s of proliferation inhibition
From the text: as §3

[25] = tested on: MiaPaCa2; assay: Cell proliferation inhibition; format: cell-based; conditions: Homo sapiens, MIA PaCa-2, Tumor cells, read-out: IC50s of proliferation inhibition
From the text: as §3

[26] = tested on: BEND3 (mouse); assay: Cell proliferation inhibition; format: cell-based; conditions: EC, read-out: IC50s of proliferation inhibition
From the text: as §3

[27] = tested on: MDA-MB; assay: Cell proliferation inhibition; format: cell-based; conditions: Tumor cells, read-out: IC50s of proliferation inhibition
From the text: as §3

[28] = target: T2, MetAP2; assay: Kinetic constants of MetAP2 with Mn2+ on peptide substrates (chromogenic assay); format: biochemical; conditions: MetAP2 with 100 μM Mn2+
From the text: as §2, with “A mixture (90 μl) of 0.1 mg/ml L-amino acid oxidase, 0.1 mg/ml of horseradish peroxidase, 0.1 mg/ml ortho-dianisidine, and 0.5 mM peptide substrate was added to each cell.” left out

T2 sequence (P50579 whole entry): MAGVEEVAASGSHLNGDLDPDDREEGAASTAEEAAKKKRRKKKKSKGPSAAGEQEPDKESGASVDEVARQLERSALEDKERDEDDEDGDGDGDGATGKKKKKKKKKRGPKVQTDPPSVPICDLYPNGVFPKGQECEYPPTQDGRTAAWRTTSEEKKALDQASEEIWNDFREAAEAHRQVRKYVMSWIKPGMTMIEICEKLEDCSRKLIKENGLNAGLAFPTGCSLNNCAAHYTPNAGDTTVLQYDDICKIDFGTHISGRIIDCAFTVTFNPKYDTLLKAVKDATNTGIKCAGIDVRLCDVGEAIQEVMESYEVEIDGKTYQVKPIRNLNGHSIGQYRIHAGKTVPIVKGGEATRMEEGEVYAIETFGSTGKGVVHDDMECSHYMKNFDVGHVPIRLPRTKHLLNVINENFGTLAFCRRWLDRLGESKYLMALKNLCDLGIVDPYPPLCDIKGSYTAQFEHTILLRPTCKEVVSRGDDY
T1 sequence (P50579 whole entry): as above

Compound: c1ccc2cc(CSc3nnc[nH]3)ccc2c1 [A310840, 3-((2-naphthylmethyl)sulfanyl)-4H-1,2,4-triazole]
- inhibition of cellular MetAP2 activity / initiator methionine processing [1]: did not inhibit
- processing of protein initiator methionine in HMVEC ([1]; treatment up to 10 μM): not blocked
- inhibition of MetAP2-Mn2+ ([2]; Mn2+ as metal cofactor): did not inhibit
- fold less active as inhibitor of MetAP2 with Mn2+ ([2]; Mn2+ form versus baseline, Co2+ and other metal forms): 1000 fold
- IC50 ([2]; other metal ions including Zn2+, Fe2+, and Ni2+, read-out: IC50 on MetAP2 with many other metal ions): 10 to 117 nM
- IC50 ([2]; without added metals, read-out: IC50 on the baseline activity of MetAP2): 60 nM
- penetration and accumulation into HMVEC cells [3]: able to penetrate and accumulate
- inhibition of HMVEC cell proliferation [4]: did not inhibit

Compound: [Cl][Co][Cl] [Co^2+, cobalt chloride]
- stimulation of MetAP1 activity ([5]; MAS substrate): about 2 fold
- stimulation of MetAP1 activity ([5]; MGAQFSKT substrate): 5 fold
- metal concentration of maximum effect on MetAP2 [6]: 10 µM
- effect on MetAP1 activity [7]: stimulatory

Compound: [Cl][Fe][Cl] [Fe^2+, ferrous chloride]
- effect on MetAP1 activity [7]: stimulatory

Compound: CO[C@@H]1[C@H](OC(=O)/C=C/C=C/C=C/C=C/C(=O)O)CC[C@]2(CO2)[C@H]1[C@@]1(C)O[C@@H]1CC=C(C)C [Fumagillin, fumagillin]
- unprocessed N-terminal initiator methionine of cellular proteins in HMVEC ([1]; 1 nM): increased; also recorded: accumulation of unprocessed N-terminal methionine
- inhibition of cellular MetAP2 activity / initiator methionine processing [1]: inhibition; also recorded: able to block
- IC50 [8]: 1 nM
- inhibition of MetAP2 with all metal ions ([2]; all metal ions): inhibited MetAP2 with all metal ions
- IC50 [9]: > 1000 nM
- IC50 [10]: 8300 nM
- IC50 [11]: 1 nM
- IC50 [12]: > 1000 nM
- IC50 [13]: 1 nM
- IC50 [14]: 3 nM
- IC50 [15]: > 1000 nM
- IC50 [16]: > 1000 nM
- IC50 [17]: 2 nM
- IC50 [18]: > 1000 nM
- IC50 [19]: 2 nM
- IC50 [20]: 3 nM
- IC50 [21]: 1 nM
- IC50 [22]: > 1000 nM
- IC50 [23]: > 1000 nM
- IC50 [24]: 1 nM
- IC50 [25]: > 1000 nM
- IC50 [26]: 2 nM
- IC50 [27]: > 1000 nM
- inhibition of HMVEC cell proliferation ([4]; 1 nM): inhibition of cell proliferation

Compound: [Cl-].[Cl-].[Zn+2] [Zn^2+, zinc chloride]
- effect on MetAP1 activity [7]: showed the best activity

Compound: MGKVKVG
- Km [28]: 215 µM
- kcat [28]: 9.563 s⁻¹

Compound: manganese chloride [Mn^2+]
- stimulation of MetAP1 activity ([5]; MAS substrate): about 2 fold
- stimulation of MetAP1 activity ([5]; MGAQFSKT substrate): 3 fold
- metal concentration of maximum effect on MetAP2 [6]: 1 µM
- concentration that fully stimulated human MetAP2 activity ([6]; in the presence and absence of physiological concentrations of GSH): 1 µM
